From patent US20170174633A1 (RESEARCH TRIANGLE INSTITUTE, priority 2014, published 2017)
“And” between values parts separate entries of the source, which are not always exact repeats. Equal values may be shown once.

How the values were obtained:
[1] = biological target: T1, rNTS2 receptor (Rattus norvegicus, UniProt Q63384); test: Calcium mobilization assay for NTS2 receptor (FLIPR Tetra); type: cell-based; conditions: for NTS2 Emax % of 5b / EC50: FLIPR assay, ± SEM; for NTS2 Emax % of 5b: calcium release relative to 5b; for EC50: compound induced calcium release, CHO-kl-rNTS2 cells; for activity in NTS2 FLIPR assay: calcium release
T1 construct: expressed in transfected cells
T1 sequence (Q63384 1-416): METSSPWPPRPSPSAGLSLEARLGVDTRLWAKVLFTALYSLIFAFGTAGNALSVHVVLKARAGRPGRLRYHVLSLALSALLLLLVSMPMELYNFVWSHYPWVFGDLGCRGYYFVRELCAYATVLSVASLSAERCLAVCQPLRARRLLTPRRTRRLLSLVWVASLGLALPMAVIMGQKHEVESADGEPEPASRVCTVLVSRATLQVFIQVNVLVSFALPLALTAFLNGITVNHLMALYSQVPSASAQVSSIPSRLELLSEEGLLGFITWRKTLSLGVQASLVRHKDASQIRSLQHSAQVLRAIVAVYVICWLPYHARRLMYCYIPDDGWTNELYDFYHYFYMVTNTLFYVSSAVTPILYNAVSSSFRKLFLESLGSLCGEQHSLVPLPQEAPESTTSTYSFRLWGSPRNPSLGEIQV
Method: (§1) The binding affinities of the test compounds for the rNTS1 and rNTS2 receptors listed in Tables 1 through 4 were determined using previously reported competitive binding assays^49. […] The cells used in the binding assay were CHO-kl cells (American Type Culture Collection) engineered to over-express either the rNTS1 or rNTS2 receptor. Measures of functional agonism and antagonism were obtained by measuring changes in intensity of a calcium-sensitive fluorescent dye as an indirect measure of changes in internal calcium concentrations. These measurements were performed using a FLIPR Tetra (NTS2) or a FlexStation II plate reader for NTS1 (Molecular Devices) and were analyzed using GraphPad Prism software.
CHO-kl-rNTS2 cells were maintained in DMEM/F12 supplemented with 10% FBS, pen/strep, 100 μg/ml normocin, and 400 μg/ml geneticin. For calcium mobilization assays, cells were plated at 25,000 cells/well in black, clear-bottom 96-well plates 24 hrs before the assay and incubated at 37° C., 5% CO2. 100 μl reconstituted Calcium 5 dye (Molecular Devices, diluted 1:20 in assay buffer (1×HBSS, 20 mM HEPES, 2.5 mM Probenicid, pH 7.4)) was added per well and plates were incubated for 45 min at 37° C., 5% CO2. […] Full-log serial dilutions of the test compounds were made at 10× the desired final concentration in 1% DMSO assay buffer and warmed to 37° C. After the pre-treatment incubation, fluorescence intensity was measured on a FLIPR Tetra fluorometric imaging plate reader (Molecular Devices). Relative Fluorescence Units (RFUs) were measured every second for 100 seconds (14 readings before compound addition to establish baseline fluorescence, 85 after) Exposure time 0.53 s, Gain=2000, Excitation intensity=30%, Gate open=10%. For antagonist assays, 1/10 volume of 10×concentration of the test compound dilutions in 10% DMSO in assay buffer was added to cells in lieu of the 10% DMSO only in assay buffer for the pre-treatment.
(§2) To determine EC50, IC50, and Ke values, data were fit to a three-parameter logistic equation using GraphPad Prism software. Ki values for radioligand binding assays were determined from ICso values using the equation of Cheng and Prusoff. All data are from at least three independent experiments run in duplicate wells.

[2] = biological target: T2, rNTS1 receptor (Rattus norvegicus, UniProt P20789); test: Calcium mobilization assay for NTS1 receptor (FLIPR assay, FlexStation II); type: cell-based; conditions: for Kb: read-out: NTS1 Ke
T2 construct: expressed in transfected cells
Method: as §1
CHO-kl-rNTS1 cells were maintained in DMEM/F12 medium supplemented with 10% fetal bovine serum (Gibco), 100 U/ml penicillin/100 ug/ml streptomycin, 100 ug/ml normocin (Invivogen), and 250 ug/ml geneticin. For calcium mobilization assays, cells were plated at 30,000 cells/well in black, clear-bottom 96-well plates 24 hrs before the assay and incubated at 37° C., 5% CO2. Prior to the assay, Calcium 5 dye (Molecular Devices) was reconstituted according to manufacturer instructions. The reconstituted dye was diluted 1:40 in assay buffer (lx HBSS, 20 mM HEPES, and 2.5 mM Probenicid (Sigma), pH 7.4). Growth media was removed and 200 ul of this diluted dye was added to each well. Plates were incubated for 45 min at 37° C., 5% CO2 after dye addition. […] Full-log serial dilutions of the test compounds were made at 10× the desired final concentration in 1% DMSO assay buffer and warmed to 37° C. After the pre-treatment incubation, fluorescence intensity was measured on a FlexStation II fluorometric imaging plate reader (Molecular Devices). Relative fluorescence units (RFU) were measured before (20 readings) and after (40 readings) the agonist compound addition for a total 60 second read time (Excitation=485 nm, Emission=525 nm, cutoff=515 nm). For antagonist assays, cells were treated with Calcium dye for 45 min at 37° C., 5% CO2 as with the agonist assays. Then the test antagonist compounds were added in 1% DMSO in assay buffer and the plate was incubated for 15 min at 37° C., 5% CO2.
as §2

[3] = biological target: T1, rNTS2 receptor; test: 125I-NT competitive binding assay, whole CHO-kl cells over-expressing rNTS2; conditions: competition with 125I-NT; ± SEM; read-out: 125I-NT Binding NTS2 Ki
Method: as §1
Briefly, cells were plated at 100,000 cells/well in 24-well plates in complete DMEM/F12 medium supplemented with 10% fetal bovine serum, 100 units of penicillin/mL, 100 μg of streptomycin/mL, 0.1 mg/mL of normocin, and 250 μg/mL geneticin. Cells were incubated at 37° C. with 5% CO2 and 95% humidity for 48 hrs. […] Cells were washed twice in Earle's buffer, extracted in 1 ml 0.1N NaOH and counted in a Packard Cobra II Gamma Counter for 1 minute.
as §2

[4] = antagonism of NT induced calcium release, ± SEM

T2 sequence (P20789 whole entry): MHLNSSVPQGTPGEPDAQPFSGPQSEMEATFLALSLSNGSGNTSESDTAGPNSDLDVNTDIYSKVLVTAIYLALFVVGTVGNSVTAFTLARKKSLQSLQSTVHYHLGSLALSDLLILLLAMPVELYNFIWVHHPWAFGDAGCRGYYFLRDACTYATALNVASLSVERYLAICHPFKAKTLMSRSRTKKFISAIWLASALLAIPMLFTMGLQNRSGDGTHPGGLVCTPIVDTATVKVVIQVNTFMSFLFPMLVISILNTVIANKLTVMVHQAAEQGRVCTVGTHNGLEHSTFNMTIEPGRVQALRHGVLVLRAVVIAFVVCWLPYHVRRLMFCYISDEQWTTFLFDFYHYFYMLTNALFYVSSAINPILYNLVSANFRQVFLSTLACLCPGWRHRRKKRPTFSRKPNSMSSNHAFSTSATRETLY

Row | SMILES | NTS2 Emax % of 5b [1] | NTS1 Ke [2, 4] | Kb [2, 4] | EC50 [1] | EC80 of 5b ([1]; final concentration used in IC50 assays) | Ki [3] | activity in NTS2 FLIPR assay [1] | activity in NTS1 FLIPR assay ([2]; agonist and antagonist mode versus NT)
1 | COc1cccc(OC)c1-c1cc(C(=O)NC2(C(=O)O)C3CC4CC(C3)CC2C4)nn1-c1ccnc2cc(Cl)ccc12 (centres unmarked) [5a, Meclinertant, reference compound] | 100 % of 5b and 100 ± 3 % of 5b and 100 ± 15 % of 5b | – | – | – | – | – | – | –
2 | COc1cccc(OC)c1-c1cc(C(=O)NC2(C(=O)O)C3CC4CC(C3)CC2C4)nn1-c1ccc(C(=O)N(C)CCCN(C)C)cc1C(C)C (centres unmarked) [5b, reference compound] | 100 ± 5 % of 5b | 1.5 ± 0.6 nM | 1.5 nM | 20 nM | 73 nM | 6 nM | – | –
3 | COc1cccc(OC)c1-c1cc(C(=O)N[C@H](C(=O)O)C2CCCCC2)nn1-c1ccnc2cc(Cl)ccc12 [14b, (2S)-({[1-(7-Chloroquinolin-4-yl)-5-(2,6-dimethoxyphenyl)-1H-pyrazol-3-yl]carbonyl}amino)-(cyclohexyl)ethanoic Acid] | 86 % of 5b and 86 ± 3 % of 5b | – | 23 ± 6 nM | 217 ± 19 nM | – | 644 nM | – | –
4 | COc1ccc(OC)c(-c2cc(C(=O)N[C@H](C(=O)O)C3CCCCC3)nn2-c2ccnc3cc(Cl)ccc23)c1 [15b, (2S)-({[1-(7-chloroquinolin-4-yl)-5-(2,5-dimethoxyphenyl)-1H-pyrazol-3-yl]carbonyl}amino) (cyclohexyl)ethanoic acid] | 19 ± 3 % of 5b | – | 1280 ± 544 nM | 216 ± 29 nM | – | 604 ± 141 nM | – | –
5 | COc1ccc(-c2cc(C(=O)N[C@H](C(=O)O)C3CCCCC3)nn2-c2ccnc3cc(Cl)ccc23)c(OC)c1 [16b, (2S)-({[1-(7-Chloroquinolin-4-yl)-5-(2,4-dimethoxyphenyl)-1H-pyrazol-3-yl]carbonyl}-amino)-(cyclohexyl)ethanoic Acid] | 12 ± 3 % of 5b | – | – | 382 ± 33 nM | – | 1580 ± 505 nM | – | –
6 | COc1ccccc1-c1cc(C(=O)N[C@H](C(=O)O)C2CCCCC2)nn1-c1ccnc2cc(Cl)ccc12 [17b, (2S)-({[1-(7-chloroquinolin-4-yl)-5-(2-methoxyphenyl)-1H-pyrazol-3-yl]carbonyl}amino)(cyclohexyl) ethanoic acid] | 25 ± 2 % of 5b | – | 1680 ± 527 nM | 258 ± 14 nM | – | 1420 ± 468 nM | – | –
7 | O=C(N[C@H](C(=O)O)C1CCCCC1)c1cc(-c2c(F)cccc2F)n(-c2ccnc3cc(Cl)ccc23)n1 [18b, (2S)-({[1-(7-Chloroquinolin-4-yl)-5-(2,6-difluorophenyl)-1H-pyrazol-3-yl]carbonyl}amino) (cyclohexyl)ethanoic Acid] | 15 ± 3 % of 5b | – | – | 166 ± 3 nM | – | 1000 ± 227 nM | – | –
8 | CCc1c(C(=O)N[C@H](C(=O)O)C2CCCCC2)nn(-c2ccnc3cc(Cl)ccc23)c1-c1c(OC)cccc1OC [19b, (2S)-({[1-(7-Chloroquinolin-4-yl)-5-(2,6-dimethoxyphenyl)-4-ethyl-1H-pyrazol-3-yl]carbonyl}amino)(cyclohexyl)ethanoic Acid] | 15 % of 5b and 15 ± 1 % of 5b | – | – | – | – | – | – | –
9 | COc1cccc(OC)c1-c1cc(C(=O)NC2(C(=O)O)CCCCCC2)nn1-c1ccnc2cc(Cl)ccc12 [20b, 1-({[1-(7-Chloroquinolin-4-yl)-5-(2,6-dimethoxyphenyl)-1H-pyrazol-3-yl]carbonyl}amino)cyclo-heptanecarboxylic Acid] | 89 ± 5 % of 5b | – | 42 ± 6 nM | 21 ± 5 nM | – | 170 nM | – | –
10 | COc1cccc(OC)c1-c1cc(C(=O)NC2(C(=O)O)CCCCC2)nn1-c1ccnc2cc(Cl)ccc12 [21b, 1-({[1-(7-Chloroquinolin-4-yl)-5-(2,6-dimethoxyphenyl)-1H-pyrazol-3-yl]carbonyl}amino)cyclo-hexanecarboxylic Acid] | 78 % of 5b and 78 ± 7 % of 5b | – | 157 ± 45 nM | 29 ± 2 nM | – | 151 nM | – | –
11 | COc1cccc(OC)c1-c1cc(C(=O)NC2(C(=O)O)CCCC2)nn1-c1ccnc2cc(Cl)ccc12 [22b, 1-({[1-(7-Chloroquinolin-4-yl)-5-(2,6-dimethoxyphenyl)-1H-pyrazol-3-yl]carbonyl}amino)cyclo-pentanecarboxylic Acid] | 76 ± 4 % of 5b | – | 222 ± 14 nM | 20 ± 4 nM | – | 102 nM | – | –
12 | COc1ccccc1-c1cc(C(=O)NC2(C(=O)O)CCCCC2)nn1-c1ccnc2cc(Cl)ccc12 [23b, 1-({[1-(7-Chloroquinolin-4-yl)-5-(2-methoxyphenyl)-1H-pyrazol-3-yl]carbonyl}amino)cyclohexane carboxylic Acid] | 35 % of 5b and 35 ± 1 % of 5b | – | 4550 ± 636 nM | 62 ± 9 nM | – | 533 ± 153 nM | – | –
13 | COc1cccc(OC)c1-c1cc(C(=O)N[C@H](C(=O)O)C2CCCCC2)nn1-c1cccc2ccccc12 [24b, (2S)-Cyclohexyl({[5-(2,6-dimethoxyphenyl)-1-naphthalen-1-yl-1H-pyrazol-3-yl]carbonyl}amino)-ethanoic Acid] | 45 % of 5b and 45 ± 1 % of 5b | – | 58 ± 6 nM | 159 ± 9 nM | – | 536 ± 20 nM | – | –
14 | COc1ccccc1-c1cc(C(=O)N[C@H](C(=O)O)C2CCCCC2)nn1-c1cccc2ccccc12 [25b, (2S)-Cyclohexyl({[5-(2-methoxyphenyl)-1-naphthalen-1-yl-1H-pyrazol-3-yl]carbonyl}amino) ethanoic Acid] | 18 ± 2 % of 5b | – | 1400 ± 330 nM | 229 ± 8 nM | – | 2690 ± 639 nM | – | –
15 | CC[C@H](C)[C@H](NC(=O)[C@H](Cc1ccc(O)cc1)NC(=O)[C@@H]1CCCN1C(=O)[C@H](CCCNC(=N)N)NC(=O)[C@@H](N)CCCNC(=N)N)C(=O)N[C@@H](CC(C)C)C(=O)O [compound 1, Arg-Arg-Pro-Tyr-Ile-Leu, reference compound] | – | – | – | – | – | – | neither NT nor the NT(8-13) fragment (1) showed any calcium release | –
16 | COc1cccc(OC)c1-c1cc(C(=O)NC2C3CC4CC(C3)CC2C4)nn1-c1ccnc2cc(Cl)ccc12 (centres unmarked) [compound 13, 1-(7-chloroquinolin-4-yl)-5-(2,6-dimethoxyphenyl)-N-tricyclo[3.3.1.13,7]dec-2-yl-1H-pyrazole-3-carboxamide] | – | – | – | – | – | – | inactive | inactive
